Read-outs that look alike come from different tables or passages of the source.
Legend:
[1] = target: T1, α4β2-containing receptor subtype (Rattus norvegicus, UniProt P09483+P12390); assay: [3H]-NIC binding assay, rat striatal membranes; conditions: compared with NONI, NDNI, DHβE
T1 construct: Striata from two rats were dissected, pooled, and homogenized; from tissue; host or cells: rat striatal membranes
Description: Striata from two rats were dissected, pooled, and homogenized with a Tekmar polytron in 10 vol of ice-cold modified Krebs-HEPES buffer (20 mM HEPES, 118 mM NaCl, 4.8 mM KCl, 2.5 mM CaCl2, 1.2 mM MgSO4, adjusted to pH 7.5). The homogenates were incubated at 37° C. for 5 minutes and centrifuged at 15,000 g for 20 minutes. The pellet was resuspended in 10 volumes of ice-cold MilliQ water, incubated for 5 minutes at 37° C., and centrifuged at 15,000 g for 20 minutes. The second pellet was then resuspended in 10 volumes of fresh ice-cold 10% Krebs-HEPES buffer, incubated at 37° C., and centrifuged at 15,000 g for 20 minutes. The latter sequence of resuspension, incubation, and centrifugation was repeated. The pellet was frozen under fresh 10% Krebs-HEPES buffer and stored at −40° C. until assayed. Upon assay, the pellet was resuspended in the Krebs-HEPES buffer, incubated at 37° C. for 5 minutes, and centrifuged at 15,000 g for 20 minutes. The final pellet was resuspended in 3.6 ml ice-cold MilliQ water which provided for approximately 200 μg protein per 100 μl aliquot. Competition assays were performed in triplicate in a final volume of 200 μl Krebs-HEPES buffer containing […] Tris buffer (pH 7.5 at 4° C.). Reactions were initiated by addition of 100 μl of membrane suspension to […] [^3H]-NIC (50 μl). and one of at least nine concentrations of analog (50 μl). After a 90 minutes incubation at […], reactions were terminated by dilution of the samples with 3 ml of ice-cold Krebs-HEPES buffer followed immediately by filtration through Whatman GF/B. glass fiber filters (presoaked in 0.5% polyethyleneimine) using a Brandel Cell Harvester. Filters were rinsed three times with. 3 ml of ice-cold Krebs-HEPES buffer, transferred to scintillation vials, and 5 ml scintillation cocktail (Research Products International Corp., Mt. Prospect, Ill.) added. Nonspecific binding determined in triplicate was defined as binding in the presence of 10 μM NIC. Binding parameters were determined using the weighted, least squares regression.
The conformationally restricted nicotine analogs were evaluated for their ability to displace [^3H]-NIC binding from rat striatal membranes.

[2] = target: T2, α7-type neuronal nicotinic acetylcholine receptors (Rattus norvegicus, UniProt Q05941); assay: [3H]-MLA binding assay, rat brain membranes; conditions: for remaining activity at 10 µM: compound 10 μM, 2.5 nM [3H]-MLA, whole brain binding relative to control
T2 construct: The brain tissue was homogenized with a Tekmar Polytron; from tissue; host or cells: male Sprague-Dawley rat brain membranes (whole brain without cortex, striatum and cerebellum)

[3] = target: T1, α4β2-containing receptor subtype; assay: [3H]-NIC binding assay, rat striatal membranes; conditions: for Specific binding of [3H]-NIC in the presence of compound: 3 nM [3H]-NIC, mean ± S.E.M of 3 experiments

T2 sequence (Q05941 23-502): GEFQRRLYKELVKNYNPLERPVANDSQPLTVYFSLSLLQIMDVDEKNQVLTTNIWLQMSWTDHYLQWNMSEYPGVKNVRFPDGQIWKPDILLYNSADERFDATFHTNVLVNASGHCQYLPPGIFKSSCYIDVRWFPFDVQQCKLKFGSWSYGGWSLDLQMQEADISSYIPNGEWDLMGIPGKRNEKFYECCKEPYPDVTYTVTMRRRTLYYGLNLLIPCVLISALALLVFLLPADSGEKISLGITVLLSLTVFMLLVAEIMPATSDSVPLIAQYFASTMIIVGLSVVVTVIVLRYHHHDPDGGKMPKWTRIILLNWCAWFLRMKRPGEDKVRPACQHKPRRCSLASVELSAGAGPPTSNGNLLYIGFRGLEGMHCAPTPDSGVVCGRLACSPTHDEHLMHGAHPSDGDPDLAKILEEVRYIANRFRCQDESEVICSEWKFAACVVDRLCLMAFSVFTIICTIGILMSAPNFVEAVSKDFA
T1 sequence (P09483 31-630): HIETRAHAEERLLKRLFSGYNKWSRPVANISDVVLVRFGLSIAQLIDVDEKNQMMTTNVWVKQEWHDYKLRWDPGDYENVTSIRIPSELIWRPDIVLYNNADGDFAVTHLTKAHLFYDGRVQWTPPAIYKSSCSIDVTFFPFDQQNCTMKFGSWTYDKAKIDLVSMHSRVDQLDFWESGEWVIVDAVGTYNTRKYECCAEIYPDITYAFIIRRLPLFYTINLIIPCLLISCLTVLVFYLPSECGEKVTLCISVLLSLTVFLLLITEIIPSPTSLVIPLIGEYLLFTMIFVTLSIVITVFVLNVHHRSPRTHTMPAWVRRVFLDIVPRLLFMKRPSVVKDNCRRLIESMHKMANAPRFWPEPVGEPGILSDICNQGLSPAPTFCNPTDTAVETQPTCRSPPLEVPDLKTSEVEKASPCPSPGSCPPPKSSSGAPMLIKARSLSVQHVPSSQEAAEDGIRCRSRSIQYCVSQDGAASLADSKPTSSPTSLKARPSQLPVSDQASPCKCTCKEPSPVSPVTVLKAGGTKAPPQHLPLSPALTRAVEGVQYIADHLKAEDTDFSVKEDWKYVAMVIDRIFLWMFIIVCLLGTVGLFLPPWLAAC
T1 sequence (P12390 25-500): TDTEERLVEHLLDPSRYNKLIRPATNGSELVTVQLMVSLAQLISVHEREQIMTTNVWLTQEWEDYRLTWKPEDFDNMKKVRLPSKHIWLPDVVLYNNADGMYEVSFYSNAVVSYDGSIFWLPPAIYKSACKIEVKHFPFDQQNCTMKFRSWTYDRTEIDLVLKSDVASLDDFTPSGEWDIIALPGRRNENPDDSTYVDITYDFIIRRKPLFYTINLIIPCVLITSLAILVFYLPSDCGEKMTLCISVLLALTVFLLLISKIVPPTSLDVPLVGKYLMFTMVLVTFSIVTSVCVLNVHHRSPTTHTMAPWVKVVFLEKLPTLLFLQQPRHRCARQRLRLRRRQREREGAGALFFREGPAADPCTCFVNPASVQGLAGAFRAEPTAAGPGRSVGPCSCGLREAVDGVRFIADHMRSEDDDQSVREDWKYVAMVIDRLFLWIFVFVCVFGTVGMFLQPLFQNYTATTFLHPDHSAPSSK

CCCCCCCCCC[n+]1ccc2c(c1)[C@@H]1[C@H](CC2)CCN1C.[I-] (relative stereo) [ACD, cis-8-decyl-1-methyl-2,3,3a,4,5,9b-hexahydro-1H-pyrrolo[3,2-h]isoquinolin-8-ium iodide]
Affinity for the [3H]-NIC binding site (in words) [1]: lost their ability to interact with this binding site
remaining activity at 10 µM [2]: 102%
Specific binding of [3H]-NIC in the presence of compound ([3]; compound 1 μM): 50.3 ± 3.7 fmol/mg of protein
Specific binding of [3H]-NIC in the presence of compound ([3]; compound 10 μM): 52.1 ± 2.6 fmol/mg of protein
Specific binding of [3H]-NIC in the presence of compound ([3]; compound 100 μM): 37.0 ± 1.7 fmol/mg of protein

CCCCCCCCCCCC[n+]1ccc2c(c1)[C@@H]1[C@H](CC2)CCN1C.[I-] (relative stereo) [ACDD, cis-8-dodecyl-1-methyl-2,3,3a,4,5,9b-hexahydro-1H-pyrrolo[3,2-h]isoquinolin-8-ium iodide]
remaining activity at 10 µM [2]: 102%
Specific binding of [3H]-NIC in the presence of compound ([3]; compound 1 μM): 49.5 ± 0.7 fmol/mg of protein
Specific binding of [3H]-NIC in the presence of compound ([3]; compound 10 μM): 49.8 ± 2.9 fmol/mg of protein
Specific binding of [3H]-NIC in the presence of compound ([3]; compound 100 μM): 44.5 ± 1.7 fmol/mg of protein

CCCCCCCCC[n+]1ccc2c(c1)[C@@H]1[C@H](CC2)CCN1C.[I-] (relative stereo) [ACN, cis-1-methyl-8-nonyl-2,3,3a,4,5,9b-hexahydro-1H-pyrrolo[3,2-h]isoquinolin-8-ium iodide]
remaining activity at 10 µM [2]: 101%
Specific binding of [3H]-NIC in the presence of compound ([3]; compound 1 μM): 49.8 ± 3.6 fmol/mg of protein
Specific binding of [3H]-NIC in the presence of compound ([3]; compound 10 μM): 48.9 ± 2.9 fmol/mg of protein
Specific binding of [3H]-NIC in the presence of compound ([3]; compound 100 μM): 30.2 ± 2.2 fmol/mg of protein

CCCCCCCC[n+]1ccc2c(c1)[C@@H]1[C@H](CC2)CCN1C.[I-] (relative stereo) [ACO, cis-1-methyl-8-octyl-2,3,3a,4,5,9b-hexahydro-1H-pyrrolo[3,2-h]isoquinolin-8-ium iodide]
Affinity for the [3H]-NIC binding site (in words) [1]: much lower affinity for the [^3H]-NIC binding site compared to NONI
remaining activity at 10 µM [2]: 91.5%
Specific binding of [3H]-NIC in the presence of compound ([3]; compound 1 μM): 44.5 ± 0.4 fmol/mg of protein
Specific binding of [3H]-NIC in the presence of compound ([3]; compound 10 μM): 42.2 ± 0.5 fmol/mg of protein
Specific binding of [3H]-NIC in the presence of compound ([3]; compound 100 μM): 30.2 ± 6.9 fmol/mg of protein

CCCCCCCCCCC[n+]1ccc2c(c1)[C@@H]1[C@H](CC2)CCN1C.[I-] (relative stereo) [ACU, cis-1-methyl-8-undecyl-2,3,3a,4,5,9b-hexahydro-1H-pyrrolo[3,2-h]isoquinolin-8-ium iodide]
remaining activity at 10 µM [2]: 100%
Specific binding of [3H]-NIC in the presence of compound ([3]; compound 1 μM): 51.3 ± 2.0 fmol/mg of protein
Specific binding of [3H]-NIC in the presence of compound ([3]; compound 10 μM): 49.0 ± 0.3 fmol/mg of protein
Specific binding of [3H]-NIC in the presence of compound ([3]; compound 100 μM): 42.7 ± 2.1 fmol/mg of protein

CCCCCCCCCCCC[n+]1cccc2c1CCC1CCN(C)C21 (stereo not drawn) [BCDD, cis-6-dodecyl-1-methyl-2,3,3a,4,5,9b-hexahydro-1H-pyrrolo[2,3-f]isoquinolin-6-ium iodide]
remaining activity at 10 µM [2]: 94.2%
Specific binding of [3H]-NIC in the presence of compound ([3]; compound 1 μM): 43.7 ± 4.5 fmol/mg of protein
Specific binding of [3H]-NIC in the presence of compound ([3]; compound 10 μM): 43.0 ± 4.7 fmol/mg of protein
Specific binding of [3H]-NIC in the presence of compound ([3]; compound 100 μM): 34.0 ± 2.1 fmol/mg of protein

CCCCCCCCCC[n+]1cccc2c1CCC1CCN(C)C21 (stereo not shown) [BCD]
Affinity for the [3H]-NIC binding site (in words) [1]: lost their ability to interact with this binding site
remaining activity at 10 µM [2]: 96.2%
Specific binding of [3H]-NIC in the presence of compound ([3]; compound 1 μM): 54.9 ± 0.7 fmol/mg of protein
Specific binding of [3H]-NIC in the presence of compound ([3]; compound 10 μM): 54.4 ± 1.1 fmol/mg of protein
Specific binding of [3H]-NIC in the presence of compound ([3]; compound 100 μM): 47.9 ± 2.8 fmol/mg of protein

CCCCCCCCC[n+]1cccc2c1CCC1CCN(C)C21 (stereo not drawn) [BCN, cis-1-methyl-6-nonyl-2,3,3a,4,5,9b-hexahydro-1H-pyrrolo[2,3-f]isoquinolin-6-ium iodide]
remaining activity at 10 µM [2]: 94%
Specific binding of [3H]-NIC in the presence of compound ([3]; compound 1 μM): 49.6 ± 1.2 fmol/mg of protein
Specific binding of [3H]-NIC in the presence of compound ([3]; compound 10 μM): 47.7 ± 2.1 fmol/mg of protein
Specific binding of [3H]-NIC in the presence of compound ([3]; compound 100 μM): 36.2 ± 0.3 fmol/mg of protein

CCCCCCCC[n+]1cccc2c1CCC1CCN(C)C21 (stereo not shown) [BCO]
Affinity for the [3H]-NIC binding site (in words) [1]: much lower affinity for the [^3H]-NIC binding site compared to NONI
remaining activity at 10 µM [2]: 93.6%
Specific binding of [3H]-NIC in the presence of compound ([3]; compound 1 μM): 50.5 ± 1.2 fmol/mg of protein
Specific binding of [3H]-NIC in the presence of compound ([3]; compound 10 μM): 39.7 ± 1.4 fmol/mg of protein
Specific binding of [3H]-NIC in the presence of compound ([3]; compound 100 μM): 13.5 ± 0.5 fmol/mg of protein

CCCCCCCCCCC[n+]1cccc2c1CCC1CCN(C)C21 (stereo not shown) [BCU]
remaining activity at 10 µM [2]: 92.3%
Specific binding of [3H]-NIC in the presence of compound ([3]; compound 1 μM): 56.1 ± 0.6 fmol/mg of protein
Specific binding of [3H]-NIC in the presence of compound ([3]; compound 10 μM): 53.9 ± 1.2 fmol/mg of protein
Specific binding of [3H]-NIC in the presence of compound ([3]; compound 100 μM): 37.3 ± 1.8 fmol/mg of protein

CCCCCCCCCC[n+]1cccc([C@@H]2CCCN2C)c1.[I-] [NDNI, reference compound]
Affinity for the [3H]-NIC binding site (in words) [3]: high affinity

α-Bungarotoxin [reference compound]
Ki [2]: 28.6 ± 5.4 nM
